Laboratory results as given in US20240368173A1, “TRICYCLIC GPR65 MODULATORS” (PATHIOS THERAPEUTICS LIMITED, priority 2021, published 2024).
Where two headings read alike, the source gives them in different places.

Biological target: human recombinant GPR65 (Homo sapiens, UniProt Q8IYL9)
Test: Human GPR65 cAMP HTRF antagonist assay
Format: cell-based
Method in brief: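 Antagonism measured as suppression of the cAMP rise when pH is dropped to 7.2 (control wells pH 7.9) in 1321N1 cells stably carrying human GPR65. Cells in KRH with 1 mM IBMX and 200 μM EDTA saw compound 30 min, then acid stimulation 30 min; HTRF cAMP detection, normalised, 4-parameter logistic IC50.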

[1] = 1321N1-hrGPR65 cells, cAMP HTRF, assay pH 7.2, read-out: hGPR65 IC50 (Activity of selected compounds according to the invention)

Sequence of human recombinant GPR65 (Q8IYL9 whole entry): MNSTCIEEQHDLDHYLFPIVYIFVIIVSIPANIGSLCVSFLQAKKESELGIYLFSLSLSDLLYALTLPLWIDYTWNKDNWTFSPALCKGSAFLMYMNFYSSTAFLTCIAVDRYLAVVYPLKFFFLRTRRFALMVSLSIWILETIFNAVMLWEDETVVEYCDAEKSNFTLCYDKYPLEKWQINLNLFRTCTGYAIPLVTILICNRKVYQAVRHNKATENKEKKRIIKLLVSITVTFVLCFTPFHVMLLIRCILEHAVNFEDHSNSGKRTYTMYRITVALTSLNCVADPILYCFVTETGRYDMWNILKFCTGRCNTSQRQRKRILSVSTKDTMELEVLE

SMILES	IC50 [nM]	IC50 [1] [nM]
Cc1cc(-c2cc(F)c(NC(=O)N3[C@H]4CC[C@@H]3c3n[nH]c(=O)cc3C4)cc2Cl)ccn1 [Compound 134, (6S,9R)-N-(5-Chloro-2-fluoro-4-(2-methylpyridin-4-yl)phenyl)-3-oxo-3,5,6,7,8,9-hexahydro-2H-6,9-epiminocyclohepta[c]pyridazine-10-carboxamide]	< 500	–
O=C(Nc1cc(Cl)c(Cl)cc1F)N1[C@H]2CC[C@@H]1c1c(OCc3ccccc3)cnc(F)c1C2 [Compound 102, (5R,8S)-4-(benzyloxy)-N-(4,5-dichloro-2-fluorophenyl)-1-fluoro-6,7,8,9-tetrahydro-5H-5,8-epiminocyclohepta[c]pyridine-10-carboxamide]	< 500	–
O=C(Nc1cc(Cl)c(-c2cc(F)cnc2F)cc1F)N1[C@H]2CC[C@@H]1c1n[nH]c(=O)cc1C2 [Compound 182, (6S,9R)-N-(5-Chloro-4-(2,5-difluoropyridin-3-yl)-2-fluorophenyl)-3-oxo-3,5,6,7,8,9-hexahydro-2H-6,9-epiminocyclohepta[c]pyridazine-10-carboxamide]	< 500	–
CC(C)COc1ccc(-c2cc(F)c(NC(=O)N3[C@H]4CC[C@@H]3c3n[nH]c(=O)cc3C4)cc2Cl)cn1 [Compound 319, (6S,9R)-N-(5-Chloro-2-fluoro-4-(6-isobutoxypyridin-3-yl)phenyl)-3-oxo-3,5,6,7,8,9-hexahydro-2H-6,9-epiminocyclohepta[c]pyridazine-10-carboxamide]	< 500	–
N#Cc1nccc2c1C[C@@H]1CC[C@H]2N1C(=O)Nc1cc(Cl)c(Cl)cc1F [Compound 92, (5R,8S)-1-Cyano-N-(4,5-dichloro-2-fluorophenyl)-6,7,8,9-tetrahydro-5H-5,8-epiminocyclohepta[c]pyridine-10-carboxamide]	< 500	–
O=C(Nc1cc(Cl)c(Br)cc1F)N1C2CCC1c1n[nH]c(=O)cc1C2 (racemic) [Compound 8, (±)-N-(4-Bromo-5-chloro-2-fluorophenyl)-3-oxo-3,5,6,7,8,9-hexahydro-2H-6,9-epiminocyclohepta[c]pyridazine-10-carboxamide]	< 500	–
O=C(Nc1ccc(C2COC2)cc1)N1[C@H]2CC[C@@H]1c1ccnc(F)c1C2 [Compound 58, (5R,8S)-1-Fluoro-N-(4-(oxetan-3-yl)phenyl)-6,7,8,9-tetrahydro-5H-5,8-epiminocyclohepta[c]pyridine-10-carboxamide]	500 to 5000	–
O=C(Nc1cc(Cl)c(-c2ccc(OC(CF)CF)nc2)cc1F)N1[C@H]2CC[C@@H]1c1n[nH]c(=O)cc1C2 [Compound 307, (6S,9R)-N-(5-Chloro-4-(6-((1,3-difluoropropan-2-yl)oxy)pyridin-3-yl)-2-fluorophenyl)-3-oxo-3,5,6,7,8,9-hexahydro-2H-6,9-epiminocyclohepta[c]pyridazine-10-carboxamide]	< 500	–
O=C(Nc1cc(Br)c(Cl)cc1F)N1[C@H]2CC[C@@H]1c1n[nH]c(=O)cc1C2 [Compound 37, (6S,9R)-N-(5-Bromo-4-chloro-2-fluorophenyl)-3-oxo-3,5,6,7,8,9-hexahydro-2H-6,9-epiminocyclohepta[c]pyridazine-10-carboxamide]	< 500	–
O=C(Nc1nnc(C2CCCCC2)s1)N1[C@H]2CC[C@@H]1c1ccnc(F)c1C2 [Compound 285, (5R,8S)—N-(5-cyclohexyl-1,3,4-thiadiazol-2-yl)-1-fluoro-6,7,8,9-tetrahydro-5H-5,8-epiminocyclohepta[c]pyridine-10-carboxamide]	< 500	–
O=C(Nc1cc(Cl)c(-c2ccc(F)nc2)cc1F)N1[C@H]2CC[C@@H]1c1ccnc(F)c1C2 [Compound 169, (5R,8S)-N-(5-Chloro-2-fluoro-4-(6-fluoropyridin-3-yl)phenyl)-1-fluoro-6,7,8,9-tetrahydro-5H-5,8-epiminocyclohepta[c]pyridine-10-carboxamide]	< 500	–
O=C(Nc1cc(Cl)c(-c2ccc(OCC(F)F)nc2)cc1F)N1[C@H]2CC[C@@H]1c1c[nH]c(=O)cc1C2 [Compound 322, (6S,9R)-N-(5-Chloro-4-(6-(2,2-difluoroethoxy)pyridin-3-yl)-2-fluorophenyl)-3-oxo-3,5,6,7,8,9-hexahydro-2H-6,9-epiminocyclohepta[c]pyridine-10-carboxamide]	< 500	–
O=C(Nc1cc(Cl)c(-c2ccc(OC3COC3)nc2)cc1F)N1[C@H]2CC[C@@H]1c1n[nH]c(=O)cc1C2 [Compound 275, (6S,9R)-N-(5-Chloro-2-fluoro-4-(6-(oxetan-3-yloxy)pyridin-3-yl)phenyl)-3-oxo-3,5,6,7,8,9-hexahydro-2H-6,9-epiminocyclohepta[c]pyridazine-10-carboxamide]	< 500	–
O=C(Nc1cc(-c2cncc(F)c2)c(C(F)(F)F)cc1F)N1[C@H]2CC[C@@H]1c1n[nH]c(=O)cc1C2 [Compound 257, (6S,9R)-N-(2-Fluoro-5-(5-fluoropyridin-3-yl)-4-(trifluoromethyl)phenyl)-3-oxo-3,5,6,7,8,9-hexahydro-2H-6,9-epiminocyclohepta[c]pyridazine-10-carboxamide]	< 500	–
O=C(Nc1ccc(-c2nnc(C(F)(F)F)s2)cc1)N1[C@H]2CC[C@@H]1c1ccnc(F)c1C2 [Compound 66, (5R,8S)-1-Fluoro-N-(4-(5-(trifluoromethyl)-1,3,4-thiadiazol-2-yl)phenyl)-6,7,8,9-tetrahydro-5H-5,8-epiminocyclohepta[c]pyridine-10-carboxamide]	< 500	–
CS(=O)(=O)c1ccc(-c2cc(F)c(NC(=O)N3[C@H]4CC[C@@H]3c3n[nH]c(=O)cc3C4)cc2Cl)cn1 [Compound 180, (6S,9R)-N-(5-Chloro-2-fluoro-4-(6-(methylsulfonyl)pyridin-3-yl)phenyl)-3-oxo-3,5,6,7,8,9-hexahydro-2H-6,9-epiminocyclohepta[c]pyridazine-10-carboxamide]	–	500 to 5000
O=C(Nc1cc(Cl)c(-c2ccc(OC3CC3)nc2)cc1F)N1[C@H]2CC[C@@H]1c1n[nH]c(=O)cc1C2 [Compound 221, (6S,9R)-N-(5-Chloro-4-(6-cyclopropoxypyridin-3-yl)-2-fluorophenyl)-3-oxo-3,5,6,7,8,9-hexahydro-2H-6,9-epiminocyclohepta[c]pyridazine-10-carboxamide]	< 500	–
O=C(Nc1cc(Cl)c(C(F)(F)F)cc1F)N1[C@H]2CC[C@@H]1c1c[nH]c(=O)nc1C2 [Compound 24, (5R,8S)-N-(5-Chloro-2-fluoro-4-(trifluoromethyl)phenyl)-2-oxo-3,5,6,7,8,9-hexahydro-2H-5,8-epiminocyclohepta[d]pyrimidine-10-carboxamide]	< 500	–
C=C1c2ccnc(F)c2[C@H]2CC[C@@H]1N2C(=O)Nc1cc(Cl)c(Cl)cc1F [Compound 106, (6S,9R)-N-(4,5-Dichloro-2-fluorophenyl)-1-fluoro-5-methylene-6,7,8,9-tetrahydro-5H-6,9-epiminocyclohepta[c]pyridine-10-carboxamide]	500 to 5000	–
O=C(Nc1cc(Cl)c(-c2ccc3cncn3c2)cc1F)N1[C@H]2CC[C@@H]1c1n[nH]c(=O)cc1C2 [Compound 197, (6S,9R)-N-(5-Chloro-2-fluoro-4-(imidazo[1,5-a]pyridin-6-yl)phenyl)-3-oxo-3,5,6,7,8,9-hexahydro-2H-6,9-epiminocyclohepta[c]pyridazine-10-carboxamide]	< 500	–
O=C(Nc1ccc(OC(F)(F)F)c(Cl)c1)N1[C@@H]2CC[C@H]1c1n[nH]c(=O)cc1C2 [Compound 45, (6R,9S)-N-(3-Chloro-4-(trifluoromethoxy)phenyl)-3-oxo-3,5,6,7,8,9-hexahydro-2H-6,9-epiminocyclohepta[c]pyridazine-10-carboxamide]	–	> 5000
O=C(Nc1cc(Cl)c(C(F)(F)F)cc1F)N1[C@@H]2CC[C@H]1[C@H](F)c1c2ccnc1F [Compound 193, (5R,8S,9R)-N-(5-Chloro-2-fluoro-4-(trifluoromethyl)phenyl)-1,9-difluoro-6,7,8,9-tetrahydro-5H-5,8-epiminocyclohepta[c]pyridine-10-carboxamide]	< 500	–
COc1ccc(-c2cc(F)c(NC(=O)N3[C@H]4CC[C@@H]3c3n[nH]c(=O)cc3C4)cc2Cl)cn1 [Compound 171, (6S,9R)-N-(5-Chloro-2-fluoro-4-(6-methoxypyridin-3-yl)phenyl)-3-oxo-3,5,6,7,8,9-hexahydro-2H-6,9-epiminocyclohepta[c]pyridazine-10-carboxamide]	< 500	–
O=C(Nc1cc(Cl)c(-c2cnc(F)c(F)c2)cc1F)N1[C@H]2CC[C@@H]1c1ccnc(F)c1C2 [Compound 262, (5R,8S)-N-(5-chloro-4-(5,6-difluoropyridin-3-yl)-2-fluorophenyl)-1-fluoro-6,7,8,9-tetrahydro-5H-5,8-epiminocyclohepta[c]pyridine-10-carboxamide]	< 500	–
O=C(Nc1cc(Cl)c(Br)cc1F)N1[C@H]2CC[C@@H]1c1c[nH]c(=O)nc1C2 [Compound 23, (5R,8S)-N-(4-Bromo-5-chloro-2-fluorophenyl)-2-oxo-3,5,6,7,8,9-hexahydro-2H-5,8-epiminocyclohepta[d]pyrimidine-10-carboxamide]	< 500	–
CO[C@H]1C[C@H](Oc2ccc(-c3cc(F)c(NC(=O)N4[C@H]5CC[C@@H]4c4n[nH]c(=O)cc4C5)cc3Cl)cn2)C1 [Compound 306, (6S,9R)-N-(5-Chloro-2-fluoro-4-(6-((1r,3R)-3-methoxycyclobutoxy)pyridin-3-yl)phenyl)-3-oxo-3,5,6,7,8,9-hexahydro-2H-6,9-epiminocyclohepta[c]pyridazine-10-carboxamide]	< 500	–
O=C(Nc1cc(Br)c(C(F)(F)F)cc1F)N1[C@@H]2CC[C@H]1c1n[nH]c(=O)cc1C2 [Compound 34, (6R,9S)-N-(5-Bromo-2-fluoro-4-(trifluoromethyl)phenyl)-3-oxo-3,5,6,7,8,9-hexahydro-2H-6,9-epiminocyclohepta[c]pyridazine-10-carboxamide]	–	> 5000
O=C(Nc1cc(I)c(Cl)cc1F)N1[C@H]2CC[C@@H]1c1c[nH]c(=O)cc1C2 [Compound 80, (6S,9R)-N-(4-Chloro-2-fluoro-5-iodophenyl)-3-oxo-3,5,6,7,8,9-hexahydro-2H-6,9-epiminocyclohepta[c]pyridine-10-carboxamide]	500 to 5000	–
